The source of these data is patent publication US20260184710A1, “CASITAS B-LINEAGE LYMPHOMA PROTOONCOGENE B (CBL-B) DEGRADING COMPOUNDS AND ASSOCIATED METHODS OF USE” (Arvinas Operations, Inc., priority 2022, published 2026).

The assay deals with T1, Cbl-b (Homo sapiens, UniProt Q13191).
T1 construct: Cbl-b-HiBit KI Jurkat Cells were purchased from Promega; host or cells: Cbl-b-HiBiT knock-in Jurkat cells
The assay can be described thus: Cbl-b Degradation Method B (Nano-Glo HiBiT lytic detection). The class given is cell-based. As to conditions: Cbl-b-HiBit KI Jurkat Cells, incubated at least 6-24 hours; for DC50: half maximal degradation, read-out: Cbl-b Degredation Method B IC50; for Dmax: maximum degradation observed, read-out: Cbl-b Degredation Method B Dmax (%). The gist of the method:
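Cbl-b-HiBiT knock-in Jurkat cells (20,000/well) were treated after ~24 h plating with an 11-point 1:3 series for 6-24 h at 37° C. Remaining Cbl-b measured by Nano-Glo HiBiT lytic luminescence. DC50 and Dmax expressed as % of control.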

Some results are limits rather than exact numbers.

T1 sequence (Q13191 whole entry): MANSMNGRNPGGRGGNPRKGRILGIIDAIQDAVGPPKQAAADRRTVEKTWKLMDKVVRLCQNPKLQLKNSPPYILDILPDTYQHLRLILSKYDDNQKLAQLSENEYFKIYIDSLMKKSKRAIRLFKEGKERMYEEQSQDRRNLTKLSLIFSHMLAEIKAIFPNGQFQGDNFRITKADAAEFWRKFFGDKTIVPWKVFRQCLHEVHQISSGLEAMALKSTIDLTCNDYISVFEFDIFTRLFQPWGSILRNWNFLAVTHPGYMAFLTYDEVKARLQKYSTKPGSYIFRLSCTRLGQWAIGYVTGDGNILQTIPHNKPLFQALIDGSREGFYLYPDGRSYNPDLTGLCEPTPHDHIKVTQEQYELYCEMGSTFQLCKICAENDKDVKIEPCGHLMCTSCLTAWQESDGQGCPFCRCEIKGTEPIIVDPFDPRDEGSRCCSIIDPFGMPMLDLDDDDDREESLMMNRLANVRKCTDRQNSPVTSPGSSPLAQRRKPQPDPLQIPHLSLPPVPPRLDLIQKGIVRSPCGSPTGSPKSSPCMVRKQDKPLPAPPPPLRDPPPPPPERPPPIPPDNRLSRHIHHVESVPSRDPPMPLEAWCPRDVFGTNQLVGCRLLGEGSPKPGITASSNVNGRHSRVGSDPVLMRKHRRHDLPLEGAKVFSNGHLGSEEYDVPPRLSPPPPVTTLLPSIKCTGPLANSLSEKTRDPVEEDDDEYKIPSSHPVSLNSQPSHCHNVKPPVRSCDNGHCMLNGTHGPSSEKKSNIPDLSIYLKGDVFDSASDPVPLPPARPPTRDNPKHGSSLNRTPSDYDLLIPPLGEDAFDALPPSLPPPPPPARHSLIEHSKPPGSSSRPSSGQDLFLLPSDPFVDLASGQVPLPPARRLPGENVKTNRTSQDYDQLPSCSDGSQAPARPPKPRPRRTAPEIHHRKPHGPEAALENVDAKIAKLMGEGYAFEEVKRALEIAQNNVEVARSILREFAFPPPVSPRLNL

As to `Cn1cnnc1CC(C)(C)c1cccc(N2Cc3c(cc(CN4CCC[C@H](CN5CCN(C[C@H]6CC[C@@H](OC7CCN(c8ccc9c(c8F)CN(C8CCC(=O)NC8=O)C9=O)CC7)CC6)CC5)C4)cc3C(F)(F)F)C2=O)c1` (stereo partly drawn) [Example 164, 3-[4-fluoro-1-oxo-5-(4-{[(1r,4r)-4-[(4-{[(3S)-1-[(2-{3-[2-methyl-1-(4-methyl-4H-1,2,4-triazol-3-yl)propan-2-yl]phenyl}-3-oxo-7-(trifluoromethyl)-2,3-dihydro-1H-isoindol-5-yl)methyl]piperidin-3-yl]methyl}piperazin-1-yl)methyl]cyclohexyl]oxy}piperidin-1-yl)-2,3-dihydro-1H-isoindol-2-yl]piperidine-2,6-dione], the DC50 was below 5 nM and the Dmax is above 70%.
The corresponding values for `CCn1cnnc1CC1(c2cccc(N3Cc4c(cc(CN5CCN(C[C@H]6CC[C@H](OC7CCN(c8ccc9c(n8)C(C)N(C8CCC(=O)NC8=O)C9=O)CC7)CC6)CC5)cc4C(F)(F)F)C3=O)c2)COC1` (mixture of isomers) [Example 235, rac-3-[7-methyl-5-oxo-2-(4-{[(1r,4r)-4-[(4-{[2-(3-{3-[(4-ethyl-4H-1,2,4-triazol-3-yl)methyl]oxetan-3-yl}phenyl)-3-oxo-7-(trifluoromethyl)-2,3-dihydro-1H-isoindol-5-yl]methyl}piperazin-1-yl)methyl]cyclohexyl]oxy}piperidin-1-yl)-5H,6H,7H-pyrrolo[3,4-b]pyridin-6-yl]piperidine-2,6-dione] are below 5 nM and 35 to 70%.
Take `Cn1cnnc1CC1(c2cccc(N3Cc4c(cc(CN5CCN(c6cc(N7CCN(c8ccc9c(c8)C(=O)N(C8CCC(=O)NC8=O)C9=O)CC7)ncn6)CC5)cc4C(F)(F)F)C3=O)c2)COC1` (centres unmarked) [Example 62, 2-(2,6-dioxopiperidin-3-yl)-5-{4-[6-(4-{[2-(3-{3-[(4-methyl-4H-1,2,4-triazol-3-yl)methyl]oxetan-3-yl}phenyl)-3-oxo-7-(trifluoromethyl)-2,3-dihydro-1H-isoindol-5-yl]methyl}piperazin-1-yl)pyrimidin-4-yl]piperazin-1-yl}-2,3-dihydro-1H-isoindole-1,3-dione]: the DC50 is above 500 nM.
Turning to `Cn1cnnc1CC1(c2cccc(N3Cc4c(cc(CN5CCN(CC6CCN(c7ccc(N8CCC(=O)NC8=O)c(F)c7)CC6)CC5)cc4C(F)(F)F)C3=O)c2)COC1` [Example 57, 1-(2-fluoro-4-{4-[(4-{[2-(3-{3-[(4-methyl-4H-1,2,4-triazol-3-yl)methyl]oxetan-3-yl}phenyl)-3-oxo-7-(trifluoromethyl)-2,3-dihydro-1H-isoindol-5-yl]methyl}piperazin-1-yl)methyl]piperidin-1-yl}phenyl)-1,3-diazinane-2,4-dione], the DC50 is above 500 nM.
Still for that read-out and setting: as for `Cn1cnnc1CC1(c2cccc(N3Cc4c(cc(CN5CCC(CN(C)[C@H]6C[C@H](Oc7ccc8c(c7)C(=O)N(C7CCC(=O)NC7=O)C8=O)C6)CC5)cc4C(F)(F)F)C3=O)c2)COC1` (some centres unmarked) [Example 60, 2-(2,6-dioxopiperidin-3-yl)-5-[(1r,3r)-3-{methyl[(1-{[2-(3-{3-[(4-methyl-4H-1,2,4-triazol-3-yl)methyl]oxetan-3-yl}phenyl)-3-oxo-7-(trifluoromethyl)-2,3-dihydro-1H-isoindol-5-yl]methyl}piperidin-4-yl)methyl]amino}cyclobutoxy]-2,3-dihydro-1H-isoindole-1,3-dione], the figure is above 500 nM; as for `Cn1cnnc1C[C@]1(c2cccc(N3Cc4c(cc(CN5CCN(C[C@H]6CC[C@H](OC7CCN(c8ccnc(C(=O)NC9CCC(=O)NC9=O)c8)CC7)CC6)CC5)cc4C(F)(F)F)C3=O)c2)C[C@H](C#N)C1` (some centres unmarked) [Example 200, N-(2,6-dioxopiperidin-3-yl)-4-(4-{[(1r,4r)-4-({4-[(3-oxo-2-{3-[(1r,3r)-3-cyano-1-[(4-methyl-4H-1,2,4-triazol-3-yl)methyl]cyclobutyl]phenyl}-7-(trifluoromethyl)-2,3-dihydro-1H-isoindol-5-yl)methyl]piperazin-1-yl}methyl)cyclohexyl]oxy}piperidin-1-yl)pyridine-2-carboxamide], above 500 nM; as for `Cn1cnnc1C[C@]1(c2cccc(N3Cc4c(cc(CN5CCN(C[C@H]6CC[C@H](OC7CCN(c8ccc(C9CCC(=O)NC9=O)cn8)CC7)CC6)CC5)cc4C(F)(F)F)C3=O)c2)C[C@H](C#N)C1` (some centres unmarked) [Example 210, (1r,3r)-3-[(4-methyl-4H-1,2,4-triazol-3-yl)methyl]-3-(3-{1-oxo-6-[(4-{[(1r,4r)-4-({1-[5-(2,6-dioxopiperidin-3-yl)pyridin-2-yl]piperidin-4-yl}oxy)cyclohexyl]methyl}piperazin-1-yl)methyl]-4-(trifluoromethyl)-2,3-dihydro-1H-isoindol-2-yl}phenyl)cyclobutane-1-carbonitrile], above 500 nM.
Same read-out and setting: then `Cn1cnnc1CC1(c2cccc(N3Cc4c(cc(CN5CCC(C6CCN(c7ccc8c(c7)C(=O)N(C7CCC(=O)NC7=O)C8=O)CC6)CC5)cc4C(F)(F)F)C3=O)c2)COC1` (centres unmarked) [Example 26, 2-(2,6-dioxopiperidin-3-yl)-5-(1′-{[2-(3-{3-[(4-methyl-4H-1,2,4-triazol-3-yl)methyl]oxetan-3-yl}phenyl)-3-oxo-7-(trifluoromethyl)-2,3-dihydro-1H-isoindol-5-yl]methyl}-[4,4′-bipiperidin]-1-yl)-2,3-dihydro-1H-isoindole-1,3-dione], with above 500 nM.
As to `CC(C)n1c(=O)n(C2CCC(=O)NC2=O)c2ccc(N3CCC(CN4CCC5(CC4)CN(c4cc6c(c(C(F)(F)F)c4)CN(c4cccc([C@]7(Cc8nncn8C)C[C@@H](C#N)C7)c4)C6=O)C5)CC3)cc21` (some centres unmarked) [Example 192, (1r,3r)-3-(3-{6-[7-({1-[1-(2,6-dioxopiperidin-3-yl)-2-oxo-3-(propan-2-yl)-2,3-dihydro-1H-1,3-benzodiazol-5-yl]piperidin-4-yl}methyl)-2,7-diazaspiro[3.5]nonan-2-yl]-1-oxo-4-(trifluoromethyl)-2,3-dihydro-1H-isoindol-2-yl}phenyl)-3-[(4-methyl-4H-1,2,4-triazol-3-yl)methyl]cyclobutane-1-carbonitrile], the DC50 was below 5 nM and the maximal degradation (Dmax) fell in the range of 35 to 70%.
As for `Cn1cnnc1CC1(c2cccc(-n3cc4c(C(F)(F)F)cc(CN5CCC[C@H](CN6CCN(CC7CCN(c8ccc9c(c8F)CN(C8CCC(=O)NC8=O)C9=O)CC7)CC6(C)C)C5)cc4n3)c2)COC1` (stereo partly drawn) [Example 285, 3-(5-{4-[(3,3-dimethyl-4-{[(3S)-1-{[2-(3-{3-[(4-methyl-4H-1,2,4-triazol-3-yl)methyl]oxetan-3-yl}phenyl)-4-(trifluoromethyl)-2H-indazol-6-yl]methyl}piperidin-3-yl]methyl}piperazin-1-yl)methyl]piperidin-1-yl}-4-fluoro-1-oxo-2,3-dihydro-1H-isoindol-2-yl)piperidine-2,6-dione], the DC50 was above 500 nM.
In the case of `Cn1cnnc1C[C@]1(c2cccc(N3Cc4c(cc(CN5CCN(C[C@H]6CC[C@H](OC7CCN(c8ccc(F)c(C(=O)NC9CCC(=O)NC9=O)c8)CC7)CC6)CC5)cc4C(F)(F)F)C3=O)c2)C[C@H](C#N)C1` (some centres unmarked) [Example 202, N-(2,6-dioxopiperidin-3-yl)-2-fluoro-5-(4-{[(1r,4r)-4-({4-[(3-oxo-2-{3-[(1r,3r)-3-cyano-1-[(4-methyl-4H-1,2,4-triazol-3-yl)methyl]cyclobutyl]phenyl}-7-(trifluoromethyl)-2,3-dihydro-1H-isoindol-5-yl)methyl]piperazin-1-yl}methyl)cyclohexyl]oxy}piperidin-1-yl)benzamide], the DC50 was above 500 nM.
In the case of `CC(C)n1c(=O)n(C2CCC(=O)NC2=O)c2ccc(N3CCC(O[C@H]4CC[C@H](CN5CCN(Cc6cc7c(c(C(F)(F)F)c6)CN(c6cccc([C@]8(Cc9nncn9C)C[C@@H](C#N)C8)c6)C7=O)CC5)CC4)CC3)cc21` (some centres unmarked) [Example 228, (1r,3r)-3-[(4-methyl-4H-1,2,4-triazol-3-yl)methyl]-3-(3-{1-oxo-6-[(4-{[(1r,4r)-4-({1-[1-(2,6-dioxopiperidin-3-yl)-2-oxo-3-(propan-2-yl)-2,3-dihydro-1H-1,3-benzodiazol-5-yl]piperidin-4-yl}oxy)cyclohexyl]methyl}piperazin-1-yl)methyl]-4-(trifluoromethyl)-2,3-dihydro-1H-isoindol-2-yl}phenyl)cyclobutane-1-carbonitrile], the DC50 was below 5 nM and the maximal degradation (Dmax) was above 70%.
On to `CC1c2nc(N3CCC(O[C@H]4CC[C@H](CN5CCN(Cc6cc7c(c(C(F)(F)F)c6)CN(c6cccc(C8(Cc9nncn9C)CCOCC8)c6)C7=O)CC5)CC4)CC3)ccc2C(=O)N1C1CCC(=O)NC1=O` (mixture of isomers) [Example 233, rac-3-[7-methyl-5-oxo-2-(4-{[(1r,4r)-4-[(4-{[2-(3-{4-[(4-methyl-4H-1,2,4-triazol-3-yl)methyl]oxan-4-yl}phenyl)-3-oxo-7-(trifluoromethyl)-2,3-dihydro-1H-isoindol-5-yl]methyl}piperazin-1-yl)methyl]cyclohexyl]oxy}piperidin-1-yl)-5H,6H,7H-pyrrolo[3,4-b]pyridin-6-yl]piperidine-2,6-dione], for which the DC50 is above 500 nM.
